Laboratory results reported in patent US20080064679A1, “Water Soluble Cannabinoids” (priority 2004, published 2008).
“And” between values parts separate entries of the source, which are not always exact repeats. Equal values may be shown once. “Also recorded” adds a separate entry of the source. Read-outs that look alike come from different tables or passages of the source.

Assays:
human CB1 receptor [1] = target: T1, human CB1 receptor (Homo sapiens, UniProt P21554); experiment: CB1 receptor binding, [3H]CP55,940 displacement in membranes of transfected cells
T1 construct: expressed in transfected cells; b94 says CHO for CB1
T1 sequence (P21554 whole entry): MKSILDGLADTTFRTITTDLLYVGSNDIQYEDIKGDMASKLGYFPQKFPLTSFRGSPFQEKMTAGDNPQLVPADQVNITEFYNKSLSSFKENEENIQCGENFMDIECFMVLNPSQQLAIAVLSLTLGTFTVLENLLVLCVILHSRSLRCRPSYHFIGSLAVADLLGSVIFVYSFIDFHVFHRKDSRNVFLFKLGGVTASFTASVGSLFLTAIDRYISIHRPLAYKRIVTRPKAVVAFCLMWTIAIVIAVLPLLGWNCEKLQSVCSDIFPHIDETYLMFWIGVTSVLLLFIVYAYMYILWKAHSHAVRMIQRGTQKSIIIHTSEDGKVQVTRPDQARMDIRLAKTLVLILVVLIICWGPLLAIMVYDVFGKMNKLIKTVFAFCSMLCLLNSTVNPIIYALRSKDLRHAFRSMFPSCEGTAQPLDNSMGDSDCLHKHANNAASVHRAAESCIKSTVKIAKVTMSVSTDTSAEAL
Procedure: (§1) For the in vivo studies, the drugs were dissolved in either saline or emulphor:ethanol:saline (E:E:S) as indicated.
(§2) cLogP calculations. Absolute solubility determinations were not performed. Rather, cLogP calculations were performed using the CS ChemDraw Ultra software (Cambridge Soft Corporation, Cambridge, Mass.). Receptor Binding. HEK-293 cells stably expressing the human CB1 receptor were cultured in DMEM with 10% FBS and Chinese Hamster Ovary (CHO) cells stably expressing the human CB2 receptor were cultured in DMEM with 10% FCS. Cells were harvested by replacement of the media with cold phosphate-buffered saline containing 1 mM EDTA followed by centrifugation at 1000×g for 5 min at 4° C. The pellet was resuspended in 50 mM Tris-HCl containing 320 mM sucrose, 2 mM EDTA and 5 mM MgCl2 (pH 7.4) (centrifugation buffer), then centrifuged at 1000×g for 10 min at 4° C., and the resulting supernatant was saved. This process was repeated twice. The supernatant fractions were combined and centrifuged at 40,000×g for 30 min at 4° C. The resulting P2 pellet was resuspended in assay buffer (50 mM Tris-HCl (pH 7.4), 3 mM MgCl2, 0.2 mM EGTA, and 100 mM NaCl) and protein was determined by the method of Bradford ENRfu(Bradford 1976). Membranes were stored at −80° C. until use. […] The assay was incubated at 30° C. for 1 hr and terminated by addition of ice cold 50 mM Tris-HCl plus BSA (1 mg/ml) (pH 7.4) followed by filtration under vacuum through Whatman GF/B glass fiber filters with 3 washes with cold Tris buffer. Bound radioactivity was determined by liquid scintillation spectrophotometry at 50% efficiency after extraction by shaking samples for 30-60 min with Budget-Solve scintillation fluid. Data are reported as the mean±SEM of three experiments, each performed in triplicate. Ki values were calculated from displacement data using EBDA (Equilibrium Binding Data Analysis; BIOSOFT, Milltown, N.J.). [^35S]GTPγS Binding Assays. Concentration-effect curves were generated by incubating membranes (10 μg prepared from CB1 expressing cells as described above) in assay buffer containing BSA (1 mg/ml) with various concentrations of test compounds in the presence of 20 μM GDP and 0.1 nM [^35S]GTPγS in a 1 ml total volume. […] Basal binding was assessed in the absence of agonist, and nonspecific binding was measured in the presence of 10 μM GTPγS. The reaction was incubated for 90 min at 30° C. and terminated by filtration under vacuum through Whatman GF/B glass fiber filters with 3 washes with cold (4° C.) Tris buffer (50 mM Tris-HCl, pH 7.4). Bound radioactivity was determined by liquid scintillation spectrophotometry at 95% efficiency after extraction overnight in ScintiSafe Econo 1 scintillation fluid. Data are reported as mean±SEM of three experiments, each performed in triplicate. Nonlinear regression analysis was conducted by iterative fitting using JMP (SAS for Macintosh). Net-stimulated [^35S]GTPγS binding is defined as [^35S]GTPγS binding in the presence of drug minus basal and percent stimulation is expressed as (net stimulated [^35S]GTPγS binding/basal)×100%. Behavioral Evaluations. All animals were allowed to acclimate to the observation room overnight. Behavioral effects were assessed in the tetrad model in order to measure potency in producing antinociception, catalepsy, hypothermia, and hypomobility. The baselines for tail-flick latency (2-4 seconds) and rectal temperature were determined prior to i.v. injections. Baseline rectal temperatures were measured using a telethermometer and a thermometer probe inserted to 25 mm (Yellow Springs Instrument Co., Yellow Springs, Ohio). The mice were then given either an i.v. i.c.v. injection of the analog. The mice were placed in individual photocell activity chambers 5 min later. Spontaneous activity was monitored for 10 min in a Digiscan Animal Activity Monitor (Omnitech Electronice, Inc., Columbus, Ohio) as measured by the number of interruptions of 16 photocell beams per chamber.

mice [2] = experiment: Relative immobility (R.I.), ring-immobility test, mouse tetrad; format: in vivo; details: for ED50: Mus musculus
human CB1 receptor [3] = target: T1, human CB1 receptor; experiment: [35S]GTPγS binding assay in membranes of CB1 expressing cells; format: biochemical; details: for EC50: mean±SEM; for Emax: read-out: CB1 % CP Stim
Procedure: as §1, §2

mice [4] = experiment: Tetrad model, all four behavioral measures together (time course, oral and i.c.v. administration); format: in vivo, mouse; details: for Potency following oral administration (four tests) / Time course of effects following oral administration: 10 mg/kg; for Potency following oral administration (four tests): 30 minutes before the start of testing; for Time course of effects following oral administration: different time points before testing; for In vivo potency relative to Δ^9-THC (times more potent): i.v., 1:1:18 vehicle
[5] = Stability in buffer, plasma and microsomal enzymes
[6] = iv, vehicle E:E:S (1:1:18), read-out: R.I. ED50 (relative immobility)
[7] = maximal GTPγS binding as percentage of stimulation produced by CP 55,940
[8] = Tables 2b, 3b, 4a, mean±SEM, read-out: CB1 Ki
[9] = [35S]GTPγS binding, read-out: CB1 EC50
[10] = iv, vehicle saline, read-out: R.I. ED50 (relative immobility)
[11] = iv, figure legends, i.v., vehicle 1:1:18 ethanol:emulphor:saline, read-out: ED50 after i.v. administration, relative immobility

Molecule	Ki (human CB1 receptor [1]; CB1 Ki)	ED50 (mice [2]; [6])	EC50 (human CB1 receptor [3]; CB1 EC50, [35S]GTPγS binding)	Emax (human CB1 receptor [3]; [7])	other results
CC1=CC[C@@H]2[C@@H](C1)c1c(O)cc(C(C)(C)CCCCC(=O)NN3CCCC3)cc1OC2(C)C [O-2543, N-(Pyrrolidin-yl)-carboxamido]	23.3 ± 3.4 nM	25.8 µmol/kg	81.1 ± 40 nM	71.3 ± 4.23%	
CC1=CC[C@@H]2[C@@H](C1)c1c(O)cc(C(C)(C)CCCCC(=O)NN3CCCCCC3)cc1OC2(C)C [O-2489, N-(Homo-piperidin-1-yl)-carboxamido]	15.8 ± 0.44 nM	20.5 µmol/kg	86.6 ± 17.4 nM	112 ± 2.32%	
CC1=CC[C@@H]2[C@@H](C1)c1c(O)cc(C(C)(C)CCCCC(=O)N3CCCC3)cc1OC2(C)C [O-2399, Pyrrolidino-carboxamido]	2.85 ± 0.52 nM	0.15 µmol/kg	275 ± 87.9 nM	117 ± 4.9%	
CC1=CC[C@@H]2[C@@H](C1)c1c(O)cc(C(C)(C)CCCCC(=O)N3CCN(C)CC3)cc1OC2(C)C [O-2381, Methylepiperazino-carboxamido]	112 ± 14 nM	183 µmol/kg			Decrease of CB1 receptor affinity and pharmacological potency, piperidine to piperazine (human CB1 receptor [1]): more than a hundred fold
CC1=CC[C@@H]2C(C1)c1c(OC(=O)CCCN(C(C)C)C(C)C)cc(C(C)(C)CCCCC(=O)N3CCOCC3)cc1OC2(C)C (some centres unmarked) [O-2694, Diisopropylaminobutyrate of Δ^8-THC-3-(1,1-dimethyl-6-morpholin-4-yl-6-oxo-hexyl)]				120 ± 8.04%	Ki (human CB1 receptor [1]; [8]): 3.7 ± 0.43 nM; ED50 (mice [2]; Table 4b, vehicle not indicated, read-out: R.I. ED50 (relative immobility)): 0.11 µmol/kg; EC50 (human CB1 receptor [3]; [9]): 28.3 ± 3.47 nM
CC1=CC[C@@H]2[C@@H](C1)c1c(O)cc(C(C)(C)CCCCC(=O)N3CCCCCC3)cc1OC2(C)C [O-2421, Homopiperidino-carboxamido]	4.24 ± 1.01 nM	0.86 µmol/kg	23.2 ± 2.06 nM	81.8 ± 8.96%	
CC1=CC[C@@H]2[C@@H](C1)c1c(O)cc(C(C)(C)CCCCc3ncc[nH]3)cc1OC2(C)C [O-2737, 1H-Imidazol-2-yl]	54 nM and 54.9 nM	> 24.5 µmol/kg			ED50 (mice [2]; [10]): > 2.2 µmol/kg
CC1=CC[C@@H]2[C@@H](C1)c1c(O)cc(C(C)(C)CCCCn3cccn3)cc1OC2(C)C [O-2715, Pyrazol-1-yl]	1.94 ± 0.29 nM	0.07 µmol/kg	4.03 ± 0.28 nM	93 ± 1.75%	ED50 (mice [2]; [11]): 0.07 µmol/kg; Time course of effects after i.v. administration (mice [4]; FIG. 12, 0.3 mg/kg (0.74 μmoles/kg) i.v., vehicle 1:1:18): duration of antinociception and hypothermia exceeded that of sedation and relative immobility; Potency following oral administration (four tests) (mice [4]): active in all tests; Time course of effects following oral administration (mice [4]): negligible effects at one hr; also recorded: effects that lasted only 1 hour
1-(2-methyl-4-N-piperidinobutyryloxy) [O-2374]					Ki (human CB1 receptor [1]; [8]): 4.62 ± 2.2 nM; R.I. ED50 (relative immobility) (mice [2]; i.v., vehicle saline): 0.57 µmol/kg; EC50 (human CB1 receptor [3]; [9]): 16.5 ± 6.97 nM; CB1 % CP Stim (human CB1 receptor [3]; [7]): 80.9 ± 3.73%
CC1=CC[C@@H]2[C@@H](C1)c1c(O)cc(C(C)(C)CCCCC(N)=O)cc1OC2(C)C [O-2352, Carboxamido]	13.1 ± 0.61 nM	0.93 µmol/kg	42 ± 4 nM	95 ± 0.3%	In vivo potency relative to Δ^9-THC (times more potent) (mice [4]; mice): slightly more potent than Δ^9-THC
CC1=CC[C@@H]2[C@@H](C1)c1c(O)cc(C(C)(C)CCCCn3cncn3)cc1OC2(C)C [O-2716, 1,2,4-Triazol-1-yl]	3.43 ± 0.16 nM	0.2 µmol/kg	36.8 ± 4.23 nM	93.1 ± 1.65%	ED50 (mice [2]; [11]): 0.2 µmol/kg; Time course of effects after i.v. administration (mice [4]; FIG. 11, 0.1 mg/kg (0.24 μmoles/kg) i.v., vehicle 1:1:18): relatively short acting with most of the effects gone by 1 hour and no separation of effects; Time course of effects following oral administration (mice [4]): Maximal effects were observed at 30 min and only a slight decrease in activity was observed at 2 hrs; also recorded: effects lasted at least 2 hours
CNC(=O)CCCCC(C)(C)c1cc(O)c2c(c1)OC(C)(C)[C@@H]1CC=C(C)C[C@@H]21 [O-2490, N-(Methyl)carboxamido]	18.7 ± 0.58 nM	> 2.5 µmol/kg	64.2 ± 10.6 nM	92.7 ± 7.81%	Maximal effects in hypothermia and catalepsy assays (mice [4]; dose 1 mg/kg that produced maximal effects in the other two measures): failed to produce maximal effects in hypothermia and catalepsy assays
CC1=CC[C@@H]2[C@@H](C1)c1c(O)cc(C(C)(C)CCCCn3ccnc3)cc1OC2(C)C [O-2545, Imidazol-1-yl]	1.34 nM and 1.47 nM	0.13 µmol/kg	29.3 nM and 4.57 nM		Stability in buffer, plasma and microsomal enzymes [5]: excellent stability in buffer and plasma and microsomal enzymes; ED50 (mice [2]; iv, figure legends, i.v., saline, read-out: ED50 after i.v. administration, relative immobility): 0.14 µmol/kg; ED50 (mice [2]; [10]): 0.14 µmol/kg; Time course of effects after i.v. administration (mice [4]; FIG. 10, 0.24 μmoles/kg i.v., saline): At 1 hr all effects, except ring immobility, are present but only antinociception is present at 2 hours; Activity in the behavioral tests after i.c.v. injection (mice [4]; i.c.v., analogs dissolved in water, THC in emulphor:ethanol:saline, Table 5 not given): the most potent; In vivo potency relative to Δ^9-THC (times more potent) (mice [4]; mice): at least 40 fold; Potency following oral administration (four tests) (mice [4]): fully effective in producing antinociception, hypothermia and ring immobility but was only a partial agonist in producing sedation; Time course of effects following oral administration (mice [4]): By four hrs the effects had largely dissipated; also recorded: produce the full range of effects up to 2 hours
CC1=CC[C@@H]2[C@@H](C1)c1c(O)cc(C(C)(C)CCCCC(=O)N3CCOCC3)cc1OC2(C)C [O-2372, Morpholino-carboxamido]	1.3 ± 0.12 nM	0.03 µmol/kg	5.88 ± 0.42 nM	120 ± 1.11%	
CC1=CC[C@@H]2[C@@H](C1)c1c(O)cc(C(C)(C)CCCCC(=O)NN3CCOCC3)cc1OC2(C)C [O-2544, N-(Morpholin-1-yl)-carboxamido]	5.97 ± 0.65 nM	0.63 µmol/kg	39.7 ± 11.4 nM	116 ± 3.71%	
CC1=CC[C@@H]2[C@@H](C1)c1c(O)cc(C(C)(C)CCCCn3ccnc3C)cc1OC2(C)C [O-2651, 2-Methyl-imidazol-1-y1]	13.9 ± 0.83 nM		82.9 ± 45.7 nM	33.4 ± 3.41%	ED50 (mice [2]; [10]): 4.29 µmol/kg; In vivo potency, fold less potent than the hydrochloride salt of O-2545 (mice [4]; mice, administered in saline): at least 10 fold
CC1=CC[C@@H]2[C@@H](C1)c1c(O)cc(C(C)(C)CCCCC(=O)N3CCCCC3)cc1OC2(C)C [O-2373, Piperidino-carboxamido]	0.96 ± 0.11 nM	0.04 µmol/kg	13.5 ± 1.81 nM	119 ± 2.05%	
